According to patent US8101768B2, “Cyclic amine compound and pest control agent” (Nippon Soda Co., Ltd., priority 2004, dated 2012):

How the values were obtained:
[1] = tested on: organophosphorous agent resistant two-spotted spider mites; assay: Effect on Two-spotted Spider Mite (spray on kidney bean leaves); assay type: in vivo; settings: 125 ppm, water dispersible powder of Formulation Example 1 sprayed, 17 female adults, 25° C., 65% humidity, 3 days
Procedure, shortened: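 Kidney bean first leaves bearing 17 adult female organophosphate-resistant mites were sprayed with a water-dispersible powder formulation at 125 ppm. Held 3 days at 25 °C, 65% humidity, then adult mortality scored; run in duplicate.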

[2] = tested on: acaricide resistant citrus red mites; assay: Effect on Citrus Red Mite (spray on mandarin orange leaves); assay type: in vivo; settings: 31 ppm, emulsifiable concentrate of Formulation Example 2 sprayed, 10 female adults, 25° C., 65% humidity
Protocol: Effect on Citrus Red Mite
10 female adults of acaricide resistant citrus red mites were inoculated onto leaves of a mandarin orange placed on dishes, onto which each of liquid agents, diluted with water so as to adjust the respective concentration of the chemical compounds to 31 ppm according to the formulation of the emulsifiable concentrate shown in the aforementioned Formulation Example 2, was sprayed by using a rotating sparge tower. After they were left in a thermostatic chamber at 25° C. in 65% humidity for 3 days, and were then removed from the dishes, eggs laid for 3 days were investigated whether they could grow to adults or not on the eleventh day. As the results, the following chemical compounds killed 100% of the adults. 1-13, 1-15, 1-22, 1-27, 1-45, 1-54, 1-59, 1-63, 1-66, 1-69, 1-71, 1-72, 1-75, 1-80, 1-88, 1-89, 1-92, 1-93, 1-94, 1-97, 1-98, 1-100, 1-102, 1-105, 1-108, 1-133, 1-136, 1-142, 1-153, 1-181, 1-183, 1-186, 1-187, 1-188, 1-189, 1-190, 1-191,

Row | Structure (SMILES) | rate of killed adults [1] | killed ... of the adults (eggs laid for 3 days investigated whether they could grow to adults on the eleventh day) [2]
1 | CC1CNC(c2cc(C(F)(F)F)ccc2O[C@@H]2[C@@H]3CC[C@H]2CN(c2ccc(C(F)(F)F)cn2)C3)O1 (some centres unmarked) [5-260] | 100% | 100%
2 | COCOc1cc(C(F)(F)F)ccc1OC1C2CCCC1CN(c1ccc(C(F)(F)F)cn1)C2 (stereo not drawn) [7-100, 9β-[2-methoxymethoxy-4-(trifluoromethyl)phenoxy]-3-[5-(trifluoromethyl)-2-pyridyl]-3-azabicyclo[3.3.1]nonane] | 100% | 100%
3 | CC(C)Oc1cc(C(F)(F)F)ccc1OC1CCN(c2ccc(C(F)(F)F)cn2)CC1 [1-100] | 100% | 100%
4 | COCOc1cc(C(F)(F)F)ccc1O[C@@H]1[C@@H]2CC[C@H]1CN(c1ccc(C(F)(F)F)cn1)C2 [5-110] | 100% | 100%
5 | Cc1coc(-c2cc(C(F)(F)F)ccc2O[C@@H]2[C@@H]3CC[C@H]2CN(c2ccc(C(F)(F)F)cn2)C3)n1 [5-261] | 100% | 100%
6 | C#CCOc1cc(C(F)(F)F)ccc1OC1C2CCC1CN(c1ccc(C(F)(F)F)cn1)C2 (centres unmarked) [5-177] | 100% | 100%
7 | CCOCOCc1cc(C(F)(F)F)ccc1OC1CCN(c2ccc(C(F)(F)F)cn2)CC1 [1-71] | 100% | 100%
8 | FC(F)c1ccc(O[C@@H]2[C@@H]3CC[C@H]2CN(c2ccc(C(F)(F)F)cn2)C3)c(OCC2CC2)c1 [5-118] | 100% | 100%
9 | Cc1noc(-c2cc(C(F)(F)F)ccc2O[C@@H]2[C@@H]3CC[C@H]2CN(c2ccc(C(F)(F)F)cn2)C3)n1 [5-256] | 100% | 100%
10 | C=CCOc1cc(C(F)(F)F)ccc1OC1C2CCC1CN(c1ccc(C(F)(F)F)cn1)C2 (centres unmarked) [5-149] | 100% | 100%
11 | CCCOCc1cc(C(F)(F)F)ccc1OC1C2CCC1CN(c1ccc(C(F)(F)F)cn1)C2 (centres unmarked) [5-217] | 100% | 100%
12 | CCOCc1cc(C(F)(F)F)ccc1OC1C2CCC1CN(c1ccc(C(F)(F)F)cn1)C2 (centres unmarked) [5-220] | 100% | 100%
13 | CC(C)OC(=O)c1cc(C(F)(F)F)ccc1O[C@@H]1[C@@H]2CC[C@H]1CN(c1ccc(C(F)(F)F)cn1)C2 [5-245] | 100% | 100%
14 | CCS(=O)(=O)Oc1cc(C(F)(F)F)ccc1OC1C2CCC1CN(c1ccc(C(F)(F)F)cn1)C2 (centres unmarked) [5-162] | 100% | 100%
15 | CCc1cc(Cl)ccc1OC1CCN(c2ccc(C(F)(F)F)cn2)CC1 [1-54] | 100% | 100%
16 | COC(C)OCc1cc(C(F)(F)F)ccc1OC1CCN(c2ccc(C(F)(F)F)cn2)CC1C (centres unmarked) [1-188] | 100% | 100%
17 | CCOc1cc(C(F)(F)F)ccc1OC1CCN(c2ccc(C(F)(F)F)cn2)CC1 [1-89] | 100% | 100%
18 | COCCOc1cc(C(F)(F)F)ccc1O[C@@H]1[C@@H]2CC[C@H]1CN(c1ccc(C(F)(F)F)cn1)C2 [5-124] | 100% | 100%
19 | CC(C)(C)OC(=O)c1cc(C(F)(F)F)ccc1O[C@@H]1[C@@H]2CC[C@H]1CN(c1ccc(C(F)(F)F)cn1)C2 [5-257] | 100% | 100%

Row | Structure (SMILES) | rate of killed adults [1] | killed ... of the adults (eggs laid for 3 days investigated whether they could grow to adults on the eleventh day) [2]
20 | CCCNc1cc(C(F)(F)F)ccc1OC1C2CCC1CN(c1ccc(C(F)(F)F)cn1)C2 (centres unmarked) [5-190] | 100% | 100%
21 | CCOc1cc(C(F)(F)F)ccc1O[C@@H]1[C@@H]2CC[C@H]1CN(c1ccc(C(F)(F)F)cn1)C2 [5-90] | 100% | 100%
22 | CCCOc1cc(C(F)(F)F)ccc1OC1CCN(c2ccc(C(F)(F)F)cn2)CC1CCC (centres unmarked) [1-191] | 100% | 100%
23 | CCCOc1cc(C(F)(F)F)ccc1OC1CCN(c2ccc(C)cn2)CC1 [1-94] | 100% | 100%
24 | O=S(=O)(Oc1cc(C(F)(F)F)ccc1OC1C2CCC1CN(c1ccc(C(F)(F)F)cn1)C2)C(F)(F)F (centres unmarked) [5-234] | 100% | 100%
25 | CC1(C)COC(c2cc(C(F)(F)F)ccc2O[C@@H]2[C@@H]3CC[C@H]2CN(c2ccc(C(F)(F)F)cn2)C3)N1 (some centres unmarked) [5-262] | 100% | 100%
26 | FC(F)(F)c1ccc(N2C[C@H]3CCC[C@@H](C2)[C@@H]3Oc2ccc(C(F)(F)F)cc2OCC2CC2)nc1 [7-103] | 100% | 100%
27 | CCOC(C)OCc1cc(C(F)(F)F)ccc1OC1C2CCC1CN(c1ccc(C(F)(F)F)cn1)C2 (centres unmarked) [5-229] | 100% | 100%
28 | C=C(C)COc1cc(C(F)(F)F)ccc1OC1C2CCC1CN(c1ccc(C(F)(F)F)cn1)C2 (centres unmarked) [5-174] | 100% | 100%
29 | FC(F)(F)c1ccc(N2C[C@H]3CC[C@@H](C2)[C@@H]3Oc2ccc(C(F)(F)F)cc2OCC2CC2)nc1 [5-116] | 100% | 100%
30 | FC(F)(F)c1ccc(N2CC3CCC(C2)C3Oc2ccc(C(F)(F)F)cc2C2OCCO2)nc1 (centres unmarked) [5-215] | 100% | 100%
31 | CCCOc1cc(C(F)(F)F)ccc1OC1CCN(c2ccc(C(F)(F)F)cn2)CC1CC (centres unmarked) [1-186] | 100% | 100%
32 | CC(C#N)OCc1cc(C(F)(F)F)ccc1OC1C2CCC1CN(c1ccc(C(F)(F)F)cn1)C2 (centres unmarked) [5-230] | 100% | 100%
33 | FC(F)(F)c1ccc(N2CC3CCC(C2)C3Oc2ccc(C(F)(F)F)cc2C2CCCO2)nc1 (centres unmarked) [5-237] | 100% | 100%
34 | CCCOc1cc(C(F)(F)F)ccc1OC1CCN(c2ccc(C(F)(F)F)cn2)C(C)C1 (centres unmarked) [1-93, 2-methyl-4-[2-propoxy-4-(trifluoromethyl)phenoxy]-1-[5-(trifluoromethyl)-2-pyridyl]piperidine] | 100% | 100%
35 | CCOCc1cc(C(F)(F)F)ccc1OC1CCN(c2ccc(C(F)(F)F)cn2)CC1 [1-66] | 100% | 100%
36 | COCOCc1cc(C(F)(F)F)ccc1O[C@@H]1[C@@H]2CC[C@H]1CN(c1ccc(C(F)(F)F)cn1)C2 [5-69] | 100% | 100%
37 | CC(C)CC(O)c1cc(C(F)(F)F)ccc1OC1C2CCC1CN(c1ccc(C(F)(F)F)cn1)C2 (centres unmarked) [5-239] | 100% | 100%
